Assay results as given in patent US20160331783A1, “BISAMIDE COMPOUNDS AS ALLOSTERIC EFFECTORS FOR REDUCING THE OXYGEN-BINDING AFFINITY OF HEMOGLOBIN” (THE GENERAL HOSPITAL CORPORATION, priority 2014, published 2016).
Non-standard residues stand in square brackets, D forms with d. Residues, ends and D or L forms follow the SMILES beside them. dNMeBip = CN[C@H](Cc1ccc(-c2ccccc2)cc1)C(=O)O

How the values were obtained:
[1] = target: T1, purified human hemoglobin (Homo sapiens, UniProt P68871); test: Oxygen dissociation curve (ODC) of purified hemoglobin, Hemox analyzer, P50; type: biochemical; settings: for P50 with purified hemoglobin: hemoglobin 20 μM, tested compound 120 μM, purified hemoglobin alone 17 Torr
T1 construct: For experiments with purified hemoglobin, hemoglobin (20 μM as tetramer) was dissolved in DPBS
Protocol: (§1) The ODC of hemoglobin was measured with a Hemox analyzer (TCS Scientific Corporation) at 37° C. For experiments with purified hemoglobin, hemoglobin (20 μM as tetramer) was dissolved in DPBS and antifoam (0.2 vol %, Catalog No. AFA-25, TCS Scientific Corporation) was added to prevent foaming of the sample. Compounds were prepared in DMSO stock solutions then added to hemoglobin. The final concentration of DMSO was adjusted to 5 vol %. For experiments with RBCs, blood was drawn from volunteers into EDTA tubes. The blood was centrifuged for 15 min at 3,000 rpm at 4° C. The supernatant was discarded, and RBCs were washed three times with DPBS, pH 7.4 by dilution to 50% hematocrit. The washed RBCs were then diluted with Hemox solution (mixture of N-[Tris(hydroxymethyl)methyl]-2-aminoethanesulfonic acid (TES, 30 mM), sodium chloride (135 mM), and potassium chloride (5 mM) in water (pH 7.4), TCS Scientific Corporation), and mixed with the test compound stock solutions. When known allosteric effectors NEM (400 μM), 5HMF (2 mM) or formamidine disulfide (400 μM) were mixed with RBCs (20 μM as hemoglobin tetramer) for 1 h at 37° C., P50 was reduced to 8 Torr, 9 Torr, and 9 Torr respectively, which correlated with previous reports (see Garel et al., European Journal of Biochemistry, 1982, 123, 513-519). Data was analyzed by two-tailed, unpaired Student's t test using Microsoft Excel 2007.
A saturating effect on P50 was first determined by adding an increasing concentration of 2,3-DPG and IHP. No increase of P50 of hemoglobin was observed after an addition of a 30-fold molar excess of 2,3-DPG or IHP to hemoglobin. Hemoglobin (20 μM as tetramer) was pre-incubated with either 2,3-DPG (600 μM) or IHP (600 μM) followed by addition of Compound 1 (0, 50, 100, 150 and 200 μM) to the hemoglobin.

hemoglobin [2] = target: T2, hemoglobin (Homo sapiens, UniProt P68871); test: Small molecule microarray (SMM) binding to hemoglobin; settings: hemoglobin 1 μg/mL, antibody detection
T2 construct: incubated in a TBS-T solution containing purified hemoglobin (1 μg/mL)
Protocol: Test compounds were affixed to SMM slides with isocyanate-functionalized surfaces as described in Casalena et al., Methods in molecular biology, 2012, 803, 249-263. Pre-incubating the SMMs with albumin blocked non-specific binding of the compounds to SMMs. Compounds binding to hemoglobin were detected on the SMMs using a fluorescent dye-conjugated antibodies specific for hemoglobin. The assay was validated by confirming the binding of hemoglobin to 2,3-DPG affixed on SMMs.
Each slide contained 48 “blocks”, and each block contained approximately 100 unique surface-immobilized small molecules. Compounds were printed in duplicate, and each slide was screened in duplicate, resulting in four replicates for every test compound. SMM slides were blocked by incubating them in a TBS-T solution (Tween 20, 0.01 vol %) containing bovine serum albumin (BSA, 0.1 wt %) for 30 min. […]
Using SMM Hits-Analyzer software (Broad Institute), the measured fluorescent signal of the foreground of a given spot (F) was divided by its local background (B) resulting in a calculated F/B ratio for each spot on which the test compounds were affixed. The F/B ratios were fitted to a Cauchy distribution plot for every block on the slide, and “positive” hits were determined using a p-value threshold of 7%. […]

[3] = tested on: human red blood cells (RBCs) / whole blood; test: Oxygen dissociation curve (ODC) of RBCs / whole blood, Hemox analyzer, P50; type: cell-based; settings: for P50 of RBCs: RBCs 20 μM as hemoglobin tetramer, 1 h at 37° C.; for P50 of whole blood: hemoglobin 20 μM, tested compound 120 μM, whole blood alone 26 Torr
Protocol: as §1

RBCs = test: Hemolysis of RBCs / blood on incubation with compound; type: cell-based, human; design: key to Hemolysis of whole blood (P50 of whole blood column): c: does not hemolyze; settings: for Hemolysis of diluted human blood: diluted human blood 50 μM, compound/Hb tetramer 30/1 mol/mol (1.5 mM), FIG. 9; for Hemolysis of whole blood (P50 of whole blood column): hemoglobin 20 μM, tested compound 120 μM
hemoglobin [4] = target: T2, hemoglobin; test: Hemoglobin oxygen-binding assay (oxyHb % by spectrophotometry at controlled FO2); type: biochemical; settings: allosteric effector to hemoglobin tetramer 6 to 1 (mol/mol)
Protocol: Test compounds (0.75 μL, 10 mM in DMSO) were added to the central area of two 384 deep well plates forming compound plates. DPBS was used as the solvent for myo-inositol hexaphosphate (IHP) and N-ethylmaleimide (NEM) (10 mM). To prevent oxidation of hemoglobin during the experiment, glucose-6-phosphate (0.4 mg/mL), glucose-6-phosphate dehydrogenase (1.0 U/mL), nicotinamide adenine dinucleotide phosphate (NADP, 0.05 mg/mL), ferredoxin (0.01 mg/mL), ferredoxin-NADP reductase (0.01 U/mL) and catalase (2×10^3 U/mL) were added to hemoglobin to produce the Hayashi reducing system, which is described in detail in Hayashi et al., Biochemica et Biophysica Acta, 1973, 310, 309-316. […]
The alteration of hemoglobin's oxygen-binding affinity by the test compounds binding to hemoglobin was evaluated in an environment where the fractional oxygen pressure (FO2) could be precisely measured and controlled. […] To confirm the allosteric effect of the test compounds, ODC of hemoglobin was measured in the presence and absence of each compound. […]
The ability of small molecules to alter the oxygen affinity of hemoglobin was determined by measuring the fraction of oxygenated hemoglobin (oxyHb %) and oxidized hemoglobin (metHb %) using spectrophotometry under three (high, medium, and low oxyHb saturation) conditions. […]

T1 sequence (P68871 2-147 limits assumed): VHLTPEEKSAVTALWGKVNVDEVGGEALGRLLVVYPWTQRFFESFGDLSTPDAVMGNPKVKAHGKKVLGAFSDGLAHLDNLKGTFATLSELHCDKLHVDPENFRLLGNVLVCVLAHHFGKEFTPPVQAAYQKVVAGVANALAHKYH
T1 sequence (P69905 2-142 partner limits assumed): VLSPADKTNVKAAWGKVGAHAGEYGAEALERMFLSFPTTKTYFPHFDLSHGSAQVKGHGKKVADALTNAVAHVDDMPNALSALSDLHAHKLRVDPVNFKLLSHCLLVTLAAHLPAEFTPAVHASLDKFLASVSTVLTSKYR
T2 sequence (P68871 2-147 limits assumed): as the sequence (P68871 2-147 limits assumed) above
T2 sequence (P69905 2-142 partner limits assumed): as the sequence (P69905 2-142 partner limits assumed) above

## CC(=O)N(C)[C@@H](Cc1ccccc1)C(=O)N[C@H](Cc1c[nH]c2ccccc12)C(=O)O (stereo in doubt) [Compound 5, (R)-3-(1H-indol-3-yl)-2-((S)-2-(N-methylacetamido)-3-phenylpropanamido)propanoic acid]
[1]
  P50 with purified hemoglobin: 18 Torr

## O=C(O)C(COP(=O)(O)O)OP(=O)(O)O (stereo not drawn) [2,3-DPG, 2,3-diphosphoglycerate, reference compound]
[1]; hemoglobin 20 μM tetramer, compound 200 μM, DPBS pH 7.4, 5 vol % DMSO, 37° C., hemoglobin alone 17 Torr
  P50 of hemoglobin: 19±0.1 Torr
[1]; hemoglobin 20 μM, 2,3-DPG 600 μM (pre-saturated), no Compound 1
  P50 of hemoglobin with 2,3-DPG: 23±0.7 Torr
Hemoglobin [2]
  Binding of hemoglobin to compound affixed on SMMs: binding

## Cc1cc(C)cc(C(=O)N(C)[C@H](Cc2ccccc2)C(=O)N[C@@H](Cc2c[nH]c3ccccc23)C(=O)O)c1 [Compound 2, (S)-3-(1H-indol-3-yl)-2-((R)-3-phenyl-2-(N,3,5-trimethylbenzamido)propanamido)propanoic acid]
[1]; FIG. 3, FIG. 6-7
  Increase of P50 of hemoglobin, dose dependence: concentration-dependent
[1]
  P50 with purified hemoglobin: 20 Torr
[3]; human blood, FIG. 9
  Oxygen affinity of red blood cells (RBCs): increased
RBCs
  Hemolysis of diluted human blood: without hemolysis

## CC(=O)N(C)[C@H](Cc1ccc(-c2ccccc2)cc1)C(=O)N[C@@H](Cc1c[nH]c2ccccc12)C(=O)O [Compound 4, (S)-2-((R)-3-([1,1′-biphenyl]-4-yl)-2-(N-methylacetamido)propanamido)-3-(1H-indol-3-yl)propanoic acid] (Ac-[dNMeBip]-Trp-OH)
[1]
  P50 with purified hemoglobin: 20 Torr

## O=Cc1ccc(CO)o1 [Compound 5HMF, reference compound]
[3]; allosteric effector 2 mM
  P50 of RBCs: 9 Torr

## Cc1cc(C)cc(C(=O)NC(Cc2ccc(-c3ccccc3)cc2)C(=O)NCC(=O)O)c1 (stereo not drawn) [Compound 8, 2-(3-([1,1′-biphenyl]-4-yl)-2-(3,5-dimethylbenzamido)propanamido)acetic acid]
[1]
  P50 with purified hemoglobin: 48 Torr
[3]
  P50 of whole blood: 32 Torr
RBCs
  Hemolysis of whole blood (P50 of whole blood column): c

## Cc1cc(C)cc(C(=O)N(C)C(Cc2ccc(-c3ccccc3)cc2)C(=O)NCC(=O)O)c1 (stereo not drawn) [Compound 9, 2-(3-([1,1′-biphenyl]-4-yl)-2-(N,3,5-trimethylbenzamido)propanamido)acetic acid]
[1]
  P50 with purified hemoglobin: 28 Torr
[3]
  P50 of whole blood: 33 Torr
RBCs
  Hemolysis of whole blood (P50 of whole blood column): c

## Cc1cc(C)cc(C(=O)N(C)C(Cc2ccc(-c3ccccc3)cc2)C(=O)NC(C)(C)C(=O)O)c1 (stereo not drawn) [Compound 10, 2-(3-([1,1′-biphenyl]-4-yl)-2-(N,3,5-trimethylbenzamido)propanamido)-2-methylpropanoic acid]
[1]
  P50 with purified hemoglobin: 23 Torr
[3]
  P50 of whole blood: 31 Torr
RBCs
  Hemolysis of whole blood (P50 of whole blood column): c

## O=P(O)(O)O[C@H]1[C@H](OP(=O)(O)O)[C@@H](OP(=O)(O)O)[C@H](OP(=O)(O)O)[C@@H](OP(=O)(O)O)[C@H]1OP(=O)(O)O [IHP, myo-inositol hexaphosphate]
Hemoglobin [4]
  Change of oxyHb %: decrease

## CCN1C(=O)C=CC1=O [NEM, N-ethylmaleimide, reference compound]
[3]; allosteric effector 400 μM
  P50 of RBCs: 8 Torr
Hemoglobin [4]
  Change of oxyHb %: increase

## Cc1cc(C)cc(NC(=O)Cc2ccc(OC(C)(C)C(=O)O)cc2)c1 [RSR-13, reference compound]
RBCs
  Hemolysis of diluted human blood: hemolysis

## N=C(N)SSC(=N)N [formamidine disulfide, reference compound]
[3]; allosteric effector 400 μM
  P50 of RBCs: 9 Torr
